Six compounds from patent US10647694B2, “Diphenylaminopyrimidine and triazine compound, and pharmaceutical composition and use thereof” (ARROMAX PHARMATECH CO., LTD., priority 2016, dated 2020) can be followed below.

Read-outs that look alike come from different tables or passages of the source.

The test system of one assay is Ba/F3 cells. Put plainly: Tumor cell growth inhibition test (CCK8 detection), Ba/F3. In kind it is cell-based, mouse. How it is done:
(§1) Growth Inhibition Test of the Series of Compounds on Various Tumor Cells (CCK8 Detection)
(1) Ba/F3 mouse IL-3 dependent pro-B lymphocyte cell line, RPMI 1640+10% FBS+10 ng/ml Interleukin-3+1% Sodium Pyruvate;
(§2) (1) Cell culture • a) Cells in logarithmic growth phase were collected, counted, and re-suspended in a complete medium. • b) The cell concentration was adjusted to an appropriate concentration, and inoculated into a 96-well plate in an amount of 100 μl of cell suspension per well. • c) The cells were incubated for 24 hrs in an incubator at 37° C. with 100% relative humidity and 5% CO2.
(§3) (2) Test of relative inhibition rate • 1) Cells in logarithmic growth phase were collected, counted, and re-suspended in a complete medium. The cell concentration was adjusted to an appropriate concentration (determined according to the optimal test result of cell density), and inoculated into a 96-well plate in an amount of 100 μl of cell suspension per well. The cells were incubated for 24 hrs in an incubator at 37° C. with 100% relative humidity and 5% CO2. • 2) The compound to be tested was diluted with the medium to the corresponding action concentration, and […] were added in an amount of 25 µl/well.
(§4) The IC50 curve was fitted using the software Graphpad Prism 5 and using the calculation formula log(inhibitor) vs response and the IC50 value was calculated.

Another assay deals with Karpas 299 cells. The assay can be described thus: Tumor cell growth inhibition test (CCK8 detection), Karpas 299. Format: cell-based, human. As for the experimental part:
as §1
(2) Karpas 299 human T lymphoma cell line, RPMI 1640+10% FBS+1% Sodium Pyruvate;
as §2, §3, §4

A further assay deals with NCI-H2228 cells. Put plainly: Tumor cell growth inhibition test (CCK8 detection), NCI-H2228. In kind it is cell-based, human. How it is done: as §1
(3) NCI-H2228 human non-small cell lung cancer cell line, RPMI 1640+10% FBS+1% Sodium Pyruvate;
as §2, §3, §4

The subject of another assay is NCI-H3122 cells. Put plainly: Tumor cell growth inhibition test (CCK8 detection), NCI-H3122. Format: cell-based, human. As for the experimental part:
as §1
(4) NCI-H3122 human lung cancer cell line, RPMI 1640+10% FBS+1% Sodium Pyruvate;
as §2, §3, §4

In assay [1] the test system is NCI-H2228 nude mice xenografts. Put plainly: In-vivo pharmacodynamic evaluation, NCI-H2228 subcutaneous xenograft. Conditions: 14 days, day 21. How it is done:
In-Vivo Pharmacodynamic Evaluation
SCID Beige mice, female, 5-6 weeks old, weighed 18+2 g, purchased from Beijing HFK Bioscience Co., Ltd., bred in an SPF level environment.
NCI-H2228 cells were cultured in PRMI-1640 containing 10% fetal bovine serum (FBS) and 1% sodium pyruvate. The cells were cultured in an incubator at 37° C. with 5% CO2.
Establishment of subcutaneous tumor transplantation model in nude mice by cell inoculation: Tumor cells in logarithmic growth phase were collected, counted and re-suspended in PRMI-1640 basal medium. Matrigel was added at a ratio of 1:1, and the concentration of the cell suspension was adjusted to 6×10^7/ml. Tumor cells were subcutaneously inoculated to the right back of nude mice in an amount of 6×10^6/0.1 mL/mouse using a 1 mL syringe (with a […]).
When the tumor volume reached about 200 mm^3, the animals were randomly grouped according to randomized block method, so that the difference in tumor volume of each group was within 10% of the mean. There were 5 groups in total, each having 8 animals. The day of grouping was recorded as Day 0, and the animals were administered immediately after grouping. Compound I-3 of the present invention and Ceritinib were orally administered once a day for consecutive 14 days, and then observed for 7 days. The weight and tumor size of the animals were measured twice a week during the experiment. The clinical symptoms were observed and recorded daily. After the animals were weighed for the last time on Day 21, they were sacrificed by euthanization with CO2. The tumors were taken, weighed and photographed, and the average tumor size was calculated, to investigate the growth inhibitory effect of the test substance Compound I-3 on human lung cancer NCI-H2228 nude mice xenografts under the experimental conditions.
When the tumor in the tumor-bearing mice grew to a measurable size, the mice were randomly divided into 5 groups according to the principle of equal mean tumor volume using SPSS 17.0 software. Compound I-3 was administered by intragastric administration at a dosage of 30, 10, and 3 mg/kg per day. The positive control ceritinib was administered by intragastric administration at a dose of 10 mg/kg per day in a volume of 0.1 ml/10 g. These agents were administered once a day for consecutive 14 days. The animals in the negative control group were given an equal amount of solvent (1% DMSO in physiological saline). During the administration and recovery periods, the body weight and tumor size of the mice were measured 2-3 times per week. The tumor volume and relative tumor volume were calculated based on the measured data. The tumor volume (TV) was calculated by a formula below: TV=1/2×a×b^2, where a and b represent the major and minor diameters of the tumor, respectively. According to the measurement results, the relative tumor volume (RTV) was calculated, by a formula below: RTV=Vt/V0, where V0 is the tumor volume at the start of the experiment, and Vt is the tumor volume measured each time.

Another assay has as its target ALK enzyme (Homo sapiens, UniProt Q9UM73). The assay can be described thus: In-vitro ALK kinase inhibitory activity (HTRF kinEASE TK kit). In kind it is biochemical. Particulars: inhibitory activity for ALK enzyme. As for the experimental part: Anaplastic Lymphoma Kinase (ALK) Inhibitory Activity The in-vitro kinase assay was performed using the HTRF kinEASE TK kit available from Cisbio. The operation steps are indicated in the instructions of the kit. This method was used to detect the inhibitory effect of the compound to be tested on the activity of ALK enzymes in vitro, including wild-type ALK (Cat.PV3867, Invitrogen), ALK L1196M (Cat. PV6168, Life technologies), and ALK F1174L (Cat. PV6160, Life technologies). The specific operation steps were as follows. […] In addition to the control wells, 4 μL of the diluted compound solution to be tested was added to the reaction wells, and 4 μL of the 2.5% DMSO solution corresponding to the ALK enzyme previously formulated was added to the control wells. (2) 2 μL of a TK-biotin substrate solution previously formulated in a substrate concentration corresponding to the ALK enzyme was added to all reaction wells. (3) 2 μL of a previously prepared enzyme solution of corresponding concentration was added to all the reaction wells except the negative wells, and 2 μL of the 1× kinase buffer corresponding to the enzyme was added to the negative wells to make up the volume. The plate was sealed with a membrane, and incubated for 10 min at room temperature after mixing uniformly, such that the compounds were bond to the enzyme fully. (4) 2 μL of an ATP solution in a concentration corresponding to the ALK enzyme was added to all the reaction wells to initiate the kinase reaction, where the enzyme reaction time by ALK was 60 minutes. (5) An ALK test solution was prepared 5 minutes before the end of the kinase reaction. Streptavidin-XL665 and TK antibody europium cryptate (1:100) solutions for assay having a concentration corresponding to the enzyme were prepared using the detection buffer in the kit. (6) After the completion of the kinase reaction, 5 μl of diluted Streptavidin-XL665 was added to all the reaction wells respectively, and mixed uniformly, and then the diluted TK antibody europium cryptate solution for assay was added immediately. (7) The plate was sealed, mixed uniformly and allowed to react at room temperature for 1 h. The fluorescence signal (excitation at 320 nm, and emission at 665 nm and 615 nm) was detected using the ENVISION instrument (Perkinelmer). The inhibition rate for each well was calculated from the values of the fully active wells and the background signal wells. The values of replicated wells were averaged, and the half-maximal inhibitory activity (IC50) of each compound to be tested was fitted with a professional drawing analysis software PRISM 5.0.
For orientation: In TR-FRET formats the signal depends on donor and acceptor labels being close together.

The mark [2] stands for this setting: Homo sapiens, KARPAS-299, 72 hrs.
The mark [3] stands for this setting: Homo sapiens, NCI-H2228, 72 hrs.
Where [4] appears, read: Homo sapiens, NCI-H3122, 72 hrs.

Sequence of ALK enzyme (Q9UM73 19-1620 limits assumed): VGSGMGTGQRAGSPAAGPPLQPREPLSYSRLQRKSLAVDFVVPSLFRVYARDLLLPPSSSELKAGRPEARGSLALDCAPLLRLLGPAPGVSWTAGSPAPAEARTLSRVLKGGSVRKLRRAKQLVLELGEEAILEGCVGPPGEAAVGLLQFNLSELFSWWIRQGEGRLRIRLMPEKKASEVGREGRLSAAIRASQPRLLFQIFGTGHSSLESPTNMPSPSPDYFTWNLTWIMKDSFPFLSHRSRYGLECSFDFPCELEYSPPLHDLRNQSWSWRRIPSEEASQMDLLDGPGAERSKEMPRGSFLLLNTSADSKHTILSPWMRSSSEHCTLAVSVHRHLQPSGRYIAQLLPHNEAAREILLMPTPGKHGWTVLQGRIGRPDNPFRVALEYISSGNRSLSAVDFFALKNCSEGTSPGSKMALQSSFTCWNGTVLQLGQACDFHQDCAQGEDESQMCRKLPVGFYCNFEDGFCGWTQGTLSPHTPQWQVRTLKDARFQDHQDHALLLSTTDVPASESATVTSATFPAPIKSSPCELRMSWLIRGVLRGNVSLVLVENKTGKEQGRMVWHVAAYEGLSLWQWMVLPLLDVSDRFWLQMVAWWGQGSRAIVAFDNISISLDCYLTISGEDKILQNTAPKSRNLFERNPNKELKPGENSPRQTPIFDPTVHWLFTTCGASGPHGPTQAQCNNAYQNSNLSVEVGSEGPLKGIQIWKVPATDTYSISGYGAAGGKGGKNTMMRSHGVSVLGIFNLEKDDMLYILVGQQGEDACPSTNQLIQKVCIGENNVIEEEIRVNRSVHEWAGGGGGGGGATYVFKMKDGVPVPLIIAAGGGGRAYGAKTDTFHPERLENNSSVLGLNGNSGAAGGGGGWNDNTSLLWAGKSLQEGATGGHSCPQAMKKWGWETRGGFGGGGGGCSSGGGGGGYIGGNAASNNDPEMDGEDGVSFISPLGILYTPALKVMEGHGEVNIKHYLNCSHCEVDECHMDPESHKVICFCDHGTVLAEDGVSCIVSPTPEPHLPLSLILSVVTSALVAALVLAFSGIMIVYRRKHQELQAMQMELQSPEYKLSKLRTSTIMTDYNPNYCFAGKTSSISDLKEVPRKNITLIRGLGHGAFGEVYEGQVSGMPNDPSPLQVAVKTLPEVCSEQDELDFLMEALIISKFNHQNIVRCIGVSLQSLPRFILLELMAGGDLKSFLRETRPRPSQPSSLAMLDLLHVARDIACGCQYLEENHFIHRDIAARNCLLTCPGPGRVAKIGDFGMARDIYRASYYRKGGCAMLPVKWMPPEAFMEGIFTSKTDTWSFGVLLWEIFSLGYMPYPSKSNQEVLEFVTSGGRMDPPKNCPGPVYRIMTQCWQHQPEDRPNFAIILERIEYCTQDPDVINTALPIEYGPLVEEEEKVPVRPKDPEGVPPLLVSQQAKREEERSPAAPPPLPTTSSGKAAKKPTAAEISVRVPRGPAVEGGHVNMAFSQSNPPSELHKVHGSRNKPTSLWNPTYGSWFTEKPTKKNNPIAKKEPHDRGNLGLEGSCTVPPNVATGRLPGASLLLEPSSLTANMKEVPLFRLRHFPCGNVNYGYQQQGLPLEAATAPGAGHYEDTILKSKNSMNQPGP

`Cc1cc(Nc2ncc(Cl)c(Nc3ccccc3S(=O)(=O)C(C)C)n2)c(OC(C)C)cc1C1CCNCC1` [Ceritinib, reference compound]: the IC50 with Ba/F3 cells (Mus musculus, BaF3, 72 hrs) amounted to 2390 nM; with Karpas 299 cells (setting [2]), 35.6 nM; in the assay with NCI-H2228 cells (setting [3]), 97.1 nM; in the assay with NCI-H3122 cells (setting [4]), 27.2 nM. The “IR (%)” value in assay [1] (10 mg/kg qd intragastric) is 26.07%. Further, in assay [1] (10 mg/kg qd intragastric), the “RTV d21” value is on record as 2.68 ± 0.28. Moreover, the “T/C (%)” value in assay [1] (10 mg/kg qd intragastric) worked out at 71.47%.
Take `[2H]C([2H])([2H])C([2H])(Oc1cc(C2CCNCC2)c(C)cc1Nc1ncc(Cl)c(Nc2ccccc2S(=O)(=O)C(C)C)n1)C([2H])([2H])[2H]`: the IC50 came out at 2890 nM in the assay on Ba/F3 cells (Mus musculus, BaF3, 72 hrs); 45.7 nM with Karpas 299 cells (setting [2]); 111 nM with NCI-H2228 cells (setting [3]); 28.4 nM in the assay with NCI-H3122 cells (setting [4]).
As to `COc1cc(C2CCNCC2)c(C)cc1Nc1ncc(Cl)c(Nc2ccccc2S(=O)(=O)C(C)C)n1` [Compound I-3, 5-chloro-N4-(2-(isopropylsulfonyl)phenyl)-N2-(2-D3-methoxy-5-methyl-4-(piperidin-4-yl)phenyl)pyrimidin-2,4-diamine], the IC50 was 1 to 10 nM at ALK enzyme (listed as 3, read-out: IC50 range); 1240 nM in the assay on Ba/F3 cells (72 hrs); 7.64 nM in the assay with Karpas 299 cells (72 hrs); 41.3 nM in the assay with NCI-H2228 cells (72 hrs); 4.03 nM in the assay on NCI-H3122 cells (72 hrs).
For `[2H]C([2H])([2H])Oc1cc(C2CCNCC2)c(C)cc1Nc1ncc(Cl)c(Nc2ccccc2S(=O)(=O)C(C)C)n1` [Compound I-3, 5-chloro-N4-(2-(isopropylsulfonyl)phenyl)-N2-(2-D3-methoxy-5-methyl-4-(piperidin-4-yl)phenyl)pyrimidin-2,4-diamine], in assay [1] (3 mg/kg qd intragastric), the “IR (%)” value is 12.86%, the “RTV d21” value was 3.12 ± 0.23 and the “T/C (%)” value is listed as 77.45%. Also, in assay [1] (10 mg/kg qd intragastric), the “IR (%)” value is listed as 53.39%, the “RTV d21” value came out at 1.70 ± 0.20 and the “T/C (%)” value is reported as 45.33%. In assay [1] (30 mg/kg qd intragastric), the “IR (%)” value turned out to be 77.14%, the “RTV d21” value is on record as 0.79 ± 0.17 and the “T/C (%)” value is 21.07%.
Consider “5-chloro-N2-(2-D6-ethoxy-5-methyl-4-(piperidin-4-yl)phenyl)-N4-(2-(isopr opylsulfonyl)phenyl))pyrimidin-2,4-diamine [Compound I-14]”, for which the IC50 on ALK enzyme (read-out: IC50 range) is 1 to 10 nM; with Ba/F3 cells (72 hrs) it was 1990 nM; in the assay with Karpas 299 cells (72 hrs), 5.23 nM; in the assay on NCI-H2228 cells (72 hrs) it was 45.5 nM; in the assay with NCI-H3122 cells (72 hrs), 6.09 nM.
Consider `COc1cc(C2CCNCC2)c(C)cc1Nc1nc(Nc2ccccc2S(=O)(=O)C(C)C)c2ccsc2n1` [Compound I-32, N4-(2-(isopropylsulfonyl)phenyl)-N2-(2-D3-methoxy-5-methyl-4-(piperidin-4-yl)phenyl)thieno[2,3-d]pyrimidin-2,4-diamine], for which the IC50 at ALK enzyme (read-out: IC50 range) lay in the range of 10 to 100 nM.

Usually IC50 stands for the point on the concentration scale where inhibition reaches its midpoint.
